Legend:
[1] = Plasma levels after oral administration in healthy mice; format: in vivo, C57BL/6 mice
Method: Each group of 6 mice received the indicated dose at time point 0 and were bled at 1, 3 and 5 hours after compound administration. Quantification was performed using a calibration curve of known compound concentrations spiked in control serum.
The plasma levels of the tested compound (example 176) was evaluated in C57BL/6 mice 8-10 weeks old Harlan, weighing 18.6-22.0 g after oral administration of 20, 10, 5 and 1 mg/kg, respectively (n=6 per dose). The tested compound (example 176) was dissolved in water to the appropriate concentration in order to deliver a constant gavage volume of 10 μl/g of body weight. Blood was collected by eye bleeding with heparinized capillaries at 1, 3, and 5 hours after dosing from each animal. The plasma fraction was immediately separated by centrifugation for 2 minutes at 12,000 g and stored at −80° C. until analysis. Each plasma sample was spiked with internal standard followed by the addition of 4 volumes of methanol. The samples were kept for 30 minutes on ice prior to centrifugation (10 minutes at 12,000 g) in order to remove precipitated proteins. The supernatant was analyzed for the presence of the tested compound (example 176), using LC/MS/MS. As standard for the bio-analysis, the tested compound (example 176) was diluted stepwise; each dilution was added to control plasma; additionally spiked with internal standard, giving rise to standard curves from 200 to 40,000 nM.

[2] = system: TNBS-induced colitis in C57 BL/6 mice; assay: Trinitrobenzenesulfonate-induced colitis test in mice (Example 209); format: in vivo
Method: C57 BL/6 mice (4-5 weeks) were obtained from M&B (Denmark), bred under standard pathogen-free conditions and maintained in the certified animal facility of the University Hospital Gasthuisberg, Catholic University of Leuven (Belgium). Experiments were approved by the local Ethical Committee of Animal Experimentation. Mice were sensitized twice 10 days and 5 days before rectal challenge. For sensitization, a 2×2 cm field of the abdominal skin was shaved, and 100 μl of 5 mg trinitrobenzenesulfonate (hereinafter referred as TNBS) in 50% ethanol solution was applied. On the day of challenge, mice were first lightly anesthetized with metofane. Subsequently TNBS (1 mg in 50% ethanol) was administered per rectum via a round-tip needle equipped with a 1-ml syringe. The tip of the needle was inserted so that the tip was about 3.5 to 4 cm proximal to the anal verge and TNBS was injected with a total volume of 100 μl. To ensure distribution of TNBS within the entire colon and cecum, mice were held in a vertical position for 1 minute after the injection.
The compound of example 176 (2-amino-6-(3,4-dimethoxyphenyl)-4-[N-(4-methyl-phenyl)-piperazin-1-yl]pteridine) was given to the mice by daily gavage at the dose of 20 mg/kg (400 μg in 100 μl H2O). Control mice were treated with 100 μl H2O only. Body weights of all animals were recorded daily in order to follow the development of inflammatory colitis over a period of 10 days.
Both macroscopic and microscopic histology evaluations were performed as follows. Mice were sacrificed at day 2 by cervical […], the colon was excised and was immediately examined visually, and damage was scored on a 0-12 scale. Colon sections were then fixed in 6% formalin and embedded in paraffin, cut into sections, and then stained with hematoxylin and eosin. Stained sections were examined for evidence of colitis using as criteria the presence of cell infiltration, elongation and/or distortion of crypts, crypt abscesses, reduction in goblet cell number, frank ulceration, and oedema formation.
MPO activity was measured as follows. Two days after intracolonic injection of TNBS, 50 mg colon was removed, homogenised and sonicated on ice. Samples were frozen in liquid nitrogen and subsequently thawed in a water bath at 37° C., each step lasted 3 minutes and the procedure was repeated for two cycles. After centrifugation, an aliquot of the supernatant was then allowed to react with a solution of tetra-methyl-benzidine (1.6 mM) and 0.1 mM H2O2. The rate of change in absorbance was measured spectrophotometrically at 460 nm. MPO activity was defined as the quantity of enzyme degrading 1 μmole of peroxide/minute at 37° C. and was expressed in units per gram weight of wet tissue. Sample enzyme activity was measured from a standard curve of known MPO unit activity (assay sensitivity 5×10^−7 units per well).
Quantitative Reverse Transcriptase (RT)-PCR for cytokine mRNA was performed as follows: part of the colon tissues, removed on day 2 after TNBS application, was immediately frozen in liquid nitrogen after dissection and stored at −70° C. until extraction of total RNA using a method well known in the art. A constant amount of 1 μg of total RNA was used for oligo-(dT)-primed cDNA synthesis (Ready-to-go-kit, commercially available from Pharmacia, Sweden). After 90 minutes at 37° C., the reverse transcriptase was inactivated by incubating the cDNA samples for 5 minutes at 95° C. The amount of cDNA was quantified by real-time RT-PCR using specific primers for β-actin and TNF, with the ABI Prism 7700 Sequence Detectin System (SDS) commercially available from Applied Biosystems (California). PCR was performed in a total volume of 25 μl, containing 5 μl cDNA and 20 μl mix with the TaqMan® Universal PCR Master Mix (2×) (Applied Biosystems) combined with 300 nM of the primer and 100 nM of the probe. […]

[3] = system: B16BL/6 melanomasarcoma cells in C57BL/6 mice; assay: Inhibition of the metastasis of melanoma cells in mice; format: in vivo; settings: for proportion of mice having metastasis: inguinal and/or para-aortic lymph nodes
Method: C57BL/6 mice were injected with 1.5×10^6 B16BL/6 melanomasarcoma cells subcutaneously in the foot path and were divided, three days later, into 4 groups: • a control 1 group of 6 mice receiving only vehicle 3 times a week; • a control 2 group of 5 mice receiving a lethal dose of TNF (15 μg, subcutaneously) 3 times a week; • a group 3 receiving the pteridine derivative of example 17 alone 3 times a week at 20 mg/kg • a group 4 of 7 mice receiving the pteridine derivative of example 17 in an amount of 20 mg/kg intraperitenously on days 3, 4, and 5 and also receiving TNF (15 μg, subcutaneously) on day 5. This combined treatment with TNF and the pteridine derivative of example 17 was continued for 2 weeks.
Reduction of tumor size is also true in mice of group 3, although to a lesser extent (198 mm^2).
All mice of control group 2 died within the very first days of treatment, whereas mortality was 3/7 in mice of group 4.
At the end of experiment, it was looked macroscopically at black metastasis in inguinal and/or para-aortic lymphoneuds in all tumor bearing groups of mice. The proportions of mice having metastasis were: • 4/5 mice in control group 1, • 0/4 mice in group 4, and • 2/4 in group 3.

[4] = daily gavage 20 mg/kg, versus control mice
[5] = group 4: example 17 20 mg/kg i.p. combined with TNF 15 μg s.c.

SMILES	serum level 5 hours after administration compared with TNF-alpha assay IC50 ([1]; 20 mg/kg oral)	circulating concentration (peak serum level) ([1]; 20 mg/kg oral, one hour after administration)	serum levels after 5 hours compared with TNF assay IC50 ([1]; all lower doses (10, 5 and 1 mg/kg oral))	peak serum levels with increasing doses ([1]; oral 1, 5, 10, 20 mg/kg, one hour after administration)	recovery of original body weight earlier than control mice ([2]; daily gavage 20 mg/kg)	microscopic score ([2]; daily gavage 20 mg/kg, day 2)	average macroscopic score ([2]; daily gavage 20 mg/kg, day 2, 0-12 scale)	tissue MPO activity in colon ([2]; daily gavage 20 mg/kg, two days after TNBS)	decrease of tissue MPO activity [2, 4]	reduction in average macroscopic score [2, 4]	mRNA for other cytokines (IFN-γ and IL-18) in colon ([2]; day 2, compared to control mice)	cytokine mRNA level for TNF in colon ([2]; day 2, ratio to β-actin multiplied by 10^6)	Anti-TNBS antibody (IgG1 and IgG2a) levels ([2]; serum day 10, compared to control mice)	tumor size ([3]; group 3: example 17 alone 3 times a week at 20 mg/kg)	proportion of mice having metastasis ([3]; group 3: example 17 alone)	mortality [3, 5]	tumor size [3, 5]	proportion of mice having metastasis ([3]; group 4: example 17 combined with TNF)
COc1ccc(-c2cnc3nc(N)nc(N4CCN(c5ccc(C)cc5)CC4)c3n2)cc1OC [Example 176, 2-amino-6-(3,4-dimethoxyphenyl)-4-((4-methylphenyl)-piperazin-1-yl)pteridine]	still above the IC50 value of the TNF-alpha assay	approximately 1 μM	lower than the IC50 value in the TNF assay	dose-dependent increase	at least 4 days	5.7±0.6	6.2±0.4	6.7±1.4 U/g	2 fold	30%	no difference	18.1±8.5	similar	–	–	–	–	–
COc1ccc(-c2cnc3nc(N)nc(N4CCN(C(=O)COc5ccccc5)CC4)c3n2)cc1OC [Example 17, 2-amino-4-[(N-phenoxyacetyl)-piperazin-1-yl]-6-(3,4-dimethoxy-phenyl)pteridine]	–	–	–	–	–	–	–	–	–	–	–	–	–	198 mm^2	2/4	3/7	120 mm^2	0/4

From patent publication US20070032477A1, “Pteridine derivatives useful for making pharmaceutical compositions” (priority 2003, published 2007)
